Among the data in ChEMBL document CHEMBL5653615 (J Biol Chem, 2013) are inhibition and IC50 values, retold here.

Experiment [1] deals with Casein kinase I isoform delta (Homo sapiens) (UniProt P48730). The experiment in a line: Inhibition of human CK1d at 500 nM by HotSpot assay relative to control.
Experiment [2] concerns the target Leukocyte tyrosine kinase receptor (Homo sapiens) (UniProt P29376). The experiment is described as follows: Inhibition of human LTK at 500 nM by HotSpot assay relative to control.
Experiment [3] deals with Protein kinase C delta type (Homo sapiens) (UniProt Q05655). The experiment in a line: Inhibition of human PKCd at 500 nM by HotSpot assay relative to control.
Sequence of Protein kinase C delta type (Homo sapiens) (Q05655 whole entry, looked up): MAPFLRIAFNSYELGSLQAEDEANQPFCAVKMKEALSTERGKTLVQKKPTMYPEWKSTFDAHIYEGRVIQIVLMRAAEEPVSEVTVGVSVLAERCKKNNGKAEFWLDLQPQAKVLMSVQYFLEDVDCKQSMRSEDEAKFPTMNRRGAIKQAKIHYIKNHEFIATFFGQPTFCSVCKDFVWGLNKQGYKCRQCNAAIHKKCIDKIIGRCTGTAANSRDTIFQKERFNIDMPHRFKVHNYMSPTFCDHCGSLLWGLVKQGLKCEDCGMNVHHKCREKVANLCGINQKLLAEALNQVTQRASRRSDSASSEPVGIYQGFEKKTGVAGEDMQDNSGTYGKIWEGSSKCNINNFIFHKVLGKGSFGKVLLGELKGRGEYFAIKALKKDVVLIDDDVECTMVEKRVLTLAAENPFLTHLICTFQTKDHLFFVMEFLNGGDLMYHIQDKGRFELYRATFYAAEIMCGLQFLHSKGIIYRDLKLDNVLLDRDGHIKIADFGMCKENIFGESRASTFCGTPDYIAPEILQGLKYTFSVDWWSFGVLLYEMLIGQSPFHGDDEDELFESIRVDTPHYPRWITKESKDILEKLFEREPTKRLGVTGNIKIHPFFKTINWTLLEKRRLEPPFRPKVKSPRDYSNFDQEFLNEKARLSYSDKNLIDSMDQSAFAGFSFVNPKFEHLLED
Experiment [4] concerns the target RAC-gamma serine/threonine-protein kinase (Homo sapiens) (UniProt Q9Y243). The experiment in a line: Inhibition of human AKT3 at 500 nM by HotSpot assay relative to control.
Experiment [5] deals with Homeodomain-interacting protein kinase 2 (Homo sapiens) (UniProt Q9H2X6). The experiment in a line: Inhibition of human HIPK2 at 500 nM by HotSpot assay relative to control.
Sequence of Homeodomain-interacting protein kinase 2 (Homo sapiens) (Q9H2X6 whole entry, looked up): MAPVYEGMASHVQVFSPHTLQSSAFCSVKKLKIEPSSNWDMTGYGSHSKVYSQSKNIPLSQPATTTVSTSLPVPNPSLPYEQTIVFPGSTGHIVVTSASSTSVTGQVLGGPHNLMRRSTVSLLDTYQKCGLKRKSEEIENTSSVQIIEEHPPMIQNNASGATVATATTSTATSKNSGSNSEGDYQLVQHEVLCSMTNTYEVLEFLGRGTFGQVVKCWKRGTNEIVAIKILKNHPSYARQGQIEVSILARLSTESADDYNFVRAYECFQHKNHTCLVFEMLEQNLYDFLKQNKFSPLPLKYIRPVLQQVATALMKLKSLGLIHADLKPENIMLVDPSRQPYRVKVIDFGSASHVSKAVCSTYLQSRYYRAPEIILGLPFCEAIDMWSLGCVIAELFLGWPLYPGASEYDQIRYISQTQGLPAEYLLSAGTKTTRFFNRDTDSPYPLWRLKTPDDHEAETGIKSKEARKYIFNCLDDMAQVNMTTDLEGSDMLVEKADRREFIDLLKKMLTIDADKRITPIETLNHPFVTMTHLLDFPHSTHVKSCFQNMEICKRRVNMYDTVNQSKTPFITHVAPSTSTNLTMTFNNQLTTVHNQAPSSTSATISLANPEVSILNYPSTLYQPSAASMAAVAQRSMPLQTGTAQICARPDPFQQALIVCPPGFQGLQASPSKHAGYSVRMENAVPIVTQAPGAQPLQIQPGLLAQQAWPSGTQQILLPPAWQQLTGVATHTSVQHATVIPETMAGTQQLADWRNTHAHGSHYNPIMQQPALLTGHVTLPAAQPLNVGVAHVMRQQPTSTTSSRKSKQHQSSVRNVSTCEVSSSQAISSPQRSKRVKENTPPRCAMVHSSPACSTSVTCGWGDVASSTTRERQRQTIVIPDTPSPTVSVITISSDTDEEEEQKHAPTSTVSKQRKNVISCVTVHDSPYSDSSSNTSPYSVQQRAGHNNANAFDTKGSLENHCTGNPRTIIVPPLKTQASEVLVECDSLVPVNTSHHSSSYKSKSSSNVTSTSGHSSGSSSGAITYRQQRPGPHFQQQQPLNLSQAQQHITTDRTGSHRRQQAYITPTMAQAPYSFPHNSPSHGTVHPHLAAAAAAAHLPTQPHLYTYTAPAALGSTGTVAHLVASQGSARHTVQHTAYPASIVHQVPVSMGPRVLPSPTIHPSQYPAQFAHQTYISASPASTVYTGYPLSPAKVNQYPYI
For experiment [6], the target named is T1, Serine/threonine-protein kinase NLK (Homo sapiens) (UniProt Q9UBE8).
T1 sequence (whole entry): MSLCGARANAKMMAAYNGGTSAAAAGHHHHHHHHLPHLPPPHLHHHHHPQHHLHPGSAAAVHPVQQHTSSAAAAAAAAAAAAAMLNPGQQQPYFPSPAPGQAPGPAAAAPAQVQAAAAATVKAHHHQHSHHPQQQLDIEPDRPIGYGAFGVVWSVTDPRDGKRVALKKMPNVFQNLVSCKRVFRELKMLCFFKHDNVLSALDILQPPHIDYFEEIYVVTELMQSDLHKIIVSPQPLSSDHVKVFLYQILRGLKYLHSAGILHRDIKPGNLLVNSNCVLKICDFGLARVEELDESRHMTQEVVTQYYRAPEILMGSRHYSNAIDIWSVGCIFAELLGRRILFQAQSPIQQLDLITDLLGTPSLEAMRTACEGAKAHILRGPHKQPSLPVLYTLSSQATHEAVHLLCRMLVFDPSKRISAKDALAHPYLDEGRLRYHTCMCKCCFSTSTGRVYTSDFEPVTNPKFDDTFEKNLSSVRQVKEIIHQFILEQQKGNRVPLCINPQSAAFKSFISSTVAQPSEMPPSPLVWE
The experiment is described as follows: Inhibition of human NLK at 500 nM by HotSpot assay relative to control.

For experiment [7], the target named is T2, Serine/threonine-protein kinase Nek3 (Homo sapiens) (UniProt P51956).
T2 sequence (whole entry): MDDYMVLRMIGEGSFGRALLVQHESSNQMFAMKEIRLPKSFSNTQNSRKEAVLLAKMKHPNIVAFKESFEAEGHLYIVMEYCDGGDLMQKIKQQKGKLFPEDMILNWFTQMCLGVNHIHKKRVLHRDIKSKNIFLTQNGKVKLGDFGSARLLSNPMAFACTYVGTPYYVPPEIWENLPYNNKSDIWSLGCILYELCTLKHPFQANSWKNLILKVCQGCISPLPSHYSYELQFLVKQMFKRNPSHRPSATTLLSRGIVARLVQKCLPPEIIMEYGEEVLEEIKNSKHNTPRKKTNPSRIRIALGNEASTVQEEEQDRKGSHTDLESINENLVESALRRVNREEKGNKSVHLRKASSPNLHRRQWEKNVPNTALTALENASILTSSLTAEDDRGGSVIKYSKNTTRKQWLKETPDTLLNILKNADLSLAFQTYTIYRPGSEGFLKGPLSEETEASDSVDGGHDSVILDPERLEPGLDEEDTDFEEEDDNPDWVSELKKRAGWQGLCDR
The experiment is described as follows: Inhibition of human NEK3 at 500 nM by HotSpot assay relative to control.

Experiment [8] deals with T3, Serine/threonine-protein kinase Sgk3 (Homo sapiens) (UniProt Q96BR1).
T3 sequence (whole entry): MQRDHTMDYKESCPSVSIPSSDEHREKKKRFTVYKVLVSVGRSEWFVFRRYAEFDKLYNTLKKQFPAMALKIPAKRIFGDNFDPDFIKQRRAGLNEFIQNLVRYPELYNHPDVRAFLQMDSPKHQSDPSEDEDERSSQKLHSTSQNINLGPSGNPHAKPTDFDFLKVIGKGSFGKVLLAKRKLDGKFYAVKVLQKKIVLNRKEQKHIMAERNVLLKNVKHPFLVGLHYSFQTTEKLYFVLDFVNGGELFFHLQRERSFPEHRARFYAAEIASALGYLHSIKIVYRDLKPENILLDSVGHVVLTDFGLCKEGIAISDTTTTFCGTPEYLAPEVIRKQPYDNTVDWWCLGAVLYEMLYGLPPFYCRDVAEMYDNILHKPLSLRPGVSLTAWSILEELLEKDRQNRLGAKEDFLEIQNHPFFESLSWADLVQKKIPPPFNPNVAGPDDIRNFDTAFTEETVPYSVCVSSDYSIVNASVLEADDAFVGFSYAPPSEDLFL
The experiment is described as follows: Inhibition of human SGKL at 500 nM by HotSpot assay relative to control.

The nature of experiment [9]: Inhibition of inactive form of human Insulin receptor (978 to 1283 residues) C981S mutant kinase domain expressed in baculovirus infected Sf9 cells incubated for 1 hr by [gamma-33P]ATP assay.
In experiment [10] the target is Serine/threonine-protein kinase PAK 4 (Homo sapiens) (UniProt O96013). The experiment in a line: Inhibition of human PAK4 at 500 nM by HotSpot assay relative to control.
Sequence of Serine/threonine-protein kinase PAK 4 (Homo sapiens) (O96013 whole entry, looked up): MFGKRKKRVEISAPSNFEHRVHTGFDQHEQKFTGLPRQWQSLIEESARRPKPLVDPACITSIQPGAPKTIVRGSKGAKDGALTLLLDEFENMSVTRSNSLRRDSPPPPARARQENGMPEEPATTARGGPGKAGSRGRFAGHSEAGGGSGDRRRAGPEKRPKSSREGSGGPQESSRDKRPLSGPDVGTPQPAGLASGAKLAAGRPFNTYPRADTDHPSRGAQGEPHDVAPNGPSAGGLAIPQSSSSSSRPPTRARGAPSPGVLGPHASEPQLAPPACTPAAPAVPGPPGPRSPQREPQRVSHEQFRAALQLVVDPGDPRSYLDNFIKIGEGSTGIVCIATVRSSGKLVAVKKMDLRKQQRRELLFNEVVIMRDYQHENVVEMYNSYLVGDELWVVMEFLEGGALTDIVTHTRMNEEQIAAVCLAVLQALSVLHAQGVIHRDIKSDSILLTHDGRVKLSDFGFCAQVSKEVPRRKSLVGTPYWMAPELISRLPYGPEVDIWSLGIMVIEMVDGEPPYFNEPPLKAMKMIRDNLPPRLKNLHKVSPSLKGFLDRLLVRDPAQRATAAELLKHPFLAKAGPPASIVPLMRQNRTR
Experiment [11] deals with Serine/threonine-protein kinase PLK3 (Homo sapiens) (UniProt Q9H4B4). The experiment in a line: Inhibition of human PLK3 at 500 nM by HotSpot assay relative to control.
Sequence of Serine/threonine-protein kinase PLK3 (Homo sapiens) (Q9H4B4 whole entry, looked up): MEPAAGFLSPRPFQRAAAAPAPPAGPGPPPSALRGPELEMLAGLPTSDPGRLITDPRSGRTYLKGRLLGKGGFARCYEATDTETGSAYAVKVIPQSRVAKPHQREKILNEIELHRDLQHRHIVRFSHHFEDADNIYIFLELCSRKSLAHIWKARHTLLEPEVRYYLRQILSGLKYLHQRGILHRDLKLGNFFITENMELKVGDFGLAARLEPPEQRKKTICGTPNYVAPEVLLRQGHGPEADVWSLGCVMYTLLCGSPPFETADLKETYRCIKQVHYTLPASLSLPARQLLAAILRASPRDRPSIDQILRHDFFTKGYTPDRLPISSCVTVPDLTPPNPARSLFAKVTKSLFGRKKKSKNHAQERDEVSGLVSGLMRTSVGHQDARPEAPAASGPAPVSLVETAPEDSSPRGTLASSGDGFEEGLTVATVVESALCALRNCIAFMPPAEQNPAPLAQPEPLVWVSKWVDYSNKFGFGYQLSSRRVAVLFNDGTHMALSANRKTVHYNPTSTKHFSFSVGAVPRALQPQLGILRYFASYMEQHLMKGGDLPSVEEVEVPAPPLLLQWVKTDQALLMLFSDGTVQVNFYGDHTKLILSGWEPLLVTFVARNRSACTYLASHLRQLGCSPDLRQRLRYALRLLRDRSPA
The target in experiment [12] is Mitogen-activated protein kinase 8 (Homo sapiens) (UniProt P45983). The experiment in a line: Inhibition of human JNK1 at 500 nM by HotSpot assay relative to control.
Sequence of Mitogen-activated protein kinase 8 (Homo sapiens) (P45983 whole entry): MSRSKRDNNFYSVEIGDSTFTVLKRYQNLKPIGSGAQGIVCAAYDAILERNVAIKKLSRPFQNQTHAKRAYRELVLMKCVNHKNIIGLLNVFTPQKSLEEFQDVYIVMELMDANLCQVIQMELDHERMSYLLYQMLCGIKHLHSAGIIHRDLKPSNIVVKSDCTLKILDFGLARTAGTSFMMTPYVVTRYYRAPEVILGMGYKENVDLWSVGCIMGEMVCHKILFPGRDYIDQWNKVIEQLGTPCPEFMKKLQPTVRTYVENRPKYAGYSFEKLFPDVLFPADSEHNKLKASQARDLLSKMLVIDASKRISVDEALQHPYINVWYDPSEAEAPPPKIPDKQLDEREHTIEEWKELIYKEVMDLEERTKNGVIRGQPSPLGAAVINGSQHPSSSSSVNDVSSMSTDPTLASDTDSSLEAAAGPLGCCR

For orientation: inhibition means the drop in the measured response relative to a control, in per cent. What is called IC50 is the concentration at which inhibition is half-maximal. A higher IC50 goes with weaker potency in that assay.

Each structure is given as a SMILES string.

Sequence of Casein kinase I isoform delta (Homo sapiens) (P48730 whole entry, looked up, canonical isoform): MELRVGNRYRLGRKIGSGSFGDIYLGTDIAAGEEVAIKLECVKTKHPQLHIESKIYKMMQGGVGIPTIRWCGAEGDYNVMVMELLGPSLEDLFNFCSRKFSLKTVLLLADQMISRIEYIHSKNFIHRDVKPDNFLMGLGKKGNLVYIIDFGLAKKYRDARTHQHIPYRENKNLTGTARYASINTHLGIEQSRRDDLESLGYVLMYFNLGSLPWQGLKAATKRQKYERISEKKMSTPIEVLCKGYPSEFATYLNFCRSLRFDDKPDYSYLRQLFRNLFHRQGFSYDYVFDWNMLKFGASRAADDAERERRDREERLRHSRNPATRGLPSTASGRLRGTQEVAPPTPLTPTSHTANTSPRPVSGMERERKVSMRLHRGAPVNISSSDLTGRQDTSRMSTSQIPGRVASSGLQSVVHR
Sequence of RAC-gamma serine/threonine-protein kinase (Homo sapiens) (Q9Y243 whole entry): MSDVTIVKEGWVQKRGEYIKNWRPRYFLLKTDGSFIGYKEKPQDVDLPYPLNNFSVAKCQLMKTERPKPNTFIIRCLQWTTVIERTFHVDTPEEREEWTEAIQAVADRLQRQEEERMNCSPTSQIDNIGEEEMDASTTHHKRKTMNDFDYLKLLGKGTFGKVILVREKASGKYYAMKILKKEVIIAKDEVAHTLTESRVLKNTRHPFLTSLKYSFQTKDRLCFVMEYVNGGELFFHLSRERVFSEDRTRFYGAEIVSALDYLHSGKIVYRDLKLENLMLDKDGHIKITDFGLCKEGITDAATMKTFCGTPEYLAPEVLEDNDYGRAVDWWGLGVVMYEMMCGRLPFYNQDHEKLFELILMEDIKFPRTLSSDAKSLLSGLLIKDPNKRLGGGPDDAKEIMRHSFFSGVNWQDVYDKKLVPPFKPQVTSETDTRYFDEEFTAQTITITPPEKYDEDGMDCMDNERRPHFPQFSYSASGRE

For `Oc1n[nH]c2nnc(-c3c(-c4ccccc4)nn4ccccc34)cc12`, the inhibition in [1] is 4.93%; in experiment [2], -7.87%; in experiment [3], 2.29%; in experiment [4], 2.1%; in [5], -0.79%; in experiment [6], -0.83%. Besides, the inhibition in experiment [7] was 12.8%; in [8], 0.31%; in experiment [10] it was -0.93%; in [11] it was 1.17%; in [12] it was 16.7%. The compound also had an IC50 in experiment [9] of 1.8 µM.
With `Nc1n[nH]c2nnc(-c3c(-c4ccccc4)nn4ccccc34)cc12`, the inhibition is 36.8% in experiment [1]; 9.45% in experiment [2]; 68.8% in experiment [3]; 2.52% in experiment [4]; 0.35% in [5]; -2.21% in experiment [6]. The inhibition in [7] was 17.3%; in experiment [8], 9.81%; in experiment [10], -1.44%; in experiment [11], -0.08%; in experiment [12] it was 1.96%. The same compound showed an IC50 in experiment [9] of 5.4 µM.
